Values after ≈ are worked out from the molar mass of the structure shown.
What was measured:
[1] = Tmax in rat at 10 mg/kg, po; type: ADME, organism-based; parameters: dose 10 mg/kg, route oral; details: in vivo
Adenosine receptor A2a [2] = target: T1, Adenosine receptor A2a (Homo sapiens, UniProt P29274); test: Displacement of [3H]ZM241385 from human adenosine A2A receptor expressed in HEK293 cells; type: cell-based
Adenosine receptor A2a [3] = target: T1, Adenosine receptor A2a; test: Antagonist activity at human adenosine A2A receptor assessed as inhibition of CGS-21680-stimulated cAMP production; type: functional
Adenosine receptor A1 = target: T2, Adenosine receptor A1 (Homo sapiens, UniProt P30542); test: Displacement of [3H]DPCPX from human adenosine A1 receptor expressed in HEK293 cells; type: cell-based
T2 sequence (P30542 whole entry): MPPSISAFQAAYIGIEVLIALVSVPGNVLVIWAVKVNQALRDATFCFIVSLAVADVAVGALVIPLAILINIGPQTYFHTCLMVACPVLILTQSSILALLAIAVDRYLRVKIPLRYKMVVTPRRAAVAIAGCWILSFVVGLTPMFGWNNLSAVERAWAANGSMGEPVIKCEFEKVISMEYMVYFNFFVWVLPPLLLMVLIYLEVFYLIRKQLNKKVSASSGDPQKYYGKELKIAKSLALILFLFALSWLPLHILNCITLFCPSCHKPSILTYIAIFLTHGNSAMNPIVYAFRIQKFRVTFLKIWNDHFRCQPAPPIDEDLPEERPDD

[4] = Lipophilicity, log D of the compound; type: physicochemical; details: octanol/water
[5] = Solubility at pH 7.4; type: physicochemical; details: buffer
Adenosine receptor A2a [6] = target: Adenosine receptor A2a (Rattus norvegicus, UniProt P30543); test: Displacement of [3H]ZM241385 from rat adenosine A2A receptor expressed in CHO cells; type: cell-based
Cytochrome P450 3A4 = Cytochrome P450 3A4 (Homo sapiens, UniProt P08684); test: Inhibition of CYP3A4; type: ADME
Cytochrome P450 2D6 = Cytochrome P450 2D6 (Homo sapiens, UniProt P10635); test: Inhibition of CYP2D6; type: ADME
Cytochrome P450 2C9 = Cytochrome P450 2C9 (Homo sapiens, UniProt P11712); test: Inhibition of CYP2C9; type: ADME
Cytochrome P450 2C19 = Cytochrome P450 2C19 (Homo sapiens, UniProt P33261); test: Inhibition of CYP2C19; type: ADME
Cytochrome P450 1A2 = target: T3, Cytochrome P450 1A2 (Homo sapiens, UniProt P05177); test: Inhibition of CYP1A2; type: ADME
T3 sequence (P05177 whole entry): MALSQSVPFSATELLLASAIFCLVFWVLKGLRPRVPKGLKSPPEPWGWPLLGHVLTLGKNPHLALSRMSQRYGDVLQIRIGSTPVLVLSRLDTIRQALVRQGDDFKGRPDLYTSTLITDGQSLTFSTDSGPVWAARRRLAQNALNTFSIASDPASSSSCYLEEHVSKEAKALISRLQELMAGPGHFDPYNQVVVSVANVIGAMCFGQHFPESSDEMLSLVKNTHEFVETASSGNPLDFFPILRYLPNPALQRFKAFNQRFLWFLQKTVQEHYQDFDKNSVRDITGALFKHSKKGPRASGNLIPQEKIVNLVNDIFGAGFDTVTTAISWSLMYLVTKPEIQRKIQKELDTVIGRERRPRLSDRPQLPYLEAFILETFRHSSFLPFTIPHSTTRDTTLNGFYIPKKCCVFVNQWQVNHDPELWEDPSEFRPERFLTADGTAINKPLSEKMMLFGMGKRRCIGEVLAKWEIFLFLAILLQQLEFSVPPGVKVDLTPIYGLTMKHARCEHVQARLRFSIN

[7] = Permeability across human Caco-2 cells; type: ADME, cell-based; details: read-out: permeability
Caco-2 = test: Ratio of permeability from apical to basolateral side over basolateral to apical side in human Caco-2 cells; type: ADME, cell-based
hERG (KCNH2) = hERG (KCNH2) (Homo sapiens, UniProt Q12809); test: Inhibition of human ERG at 10 uM by patch clamp technique
[8] = Drug level in rat brain at 10 mg/kg, po after 1 hr; type: ADME, organism-based; parameters: dose 10 mg/kg, route oral; details: read-out: Drug uptake
[9] = Drug level in rat brain at 10 mg/kg, po after 4 hrs; type: ADME, organism-based; parameters: dose 10 mg/kg, route oral; details: read-out: Drug uptake
[10] = Plasma concentration in rat at 10 mg/kg, po after 1 hr; type: ADME, organism-based; parameters: dose 10 mg/kg, route oral
[11] = Plasma concentration in rat at 10 mg/kg, po after 4 hrs; type: ADME, organism-based; parameters: dose 10 mg/kg, route oral
[12] = Ratio of drug level in brain to plasma in rat at 10 mg/kg, po after 1 hr; type: ADME, organism-based; parameters: dose 10 mg/kg, route oral; details: brain and plasma, read-out: BPR
[13] = Ratio of drug level in brain to plasma in rat at 10 mg/kg, po after 4 hrs; type: ADME, organism-based; parameters: dose 10 mg/kg, route oral; details: brain and plasma, read-out: BPR
Rattus norvegicus [14] = test: Inhibition of haloperidol-induced catalepsy in rat assessed as reduction in descent latency at 10 mg/kg, po after 2 hrs; type: organism-based; parameters: dose 10 mg/kg, route oral; details: in vivo
Rattus norvegicus [15] = test: Inhibition of haloperidol-induced catalepsy in rat assessed as reduction in descent latency at 30 mg/kg, po after 2 hrs; type: organism-based; parameters: dose 30 mg/kg, route oral; details: in vivo
Rattus norvegicus [16] = test: Potentiation of […]-induced rotational behavior in unilateral 6-hydroxydopamine lesioned po dosed rat after 5 hrs; type: ADME, organism-based; details: in vivo
Adenosine receptor A2b = target: T4, Adenosine receptor A2b (Homo sapiens, UniProt P29275); test: Inhibition of human adenosine A2B receptor
T4 sequence (P29275 whole entry): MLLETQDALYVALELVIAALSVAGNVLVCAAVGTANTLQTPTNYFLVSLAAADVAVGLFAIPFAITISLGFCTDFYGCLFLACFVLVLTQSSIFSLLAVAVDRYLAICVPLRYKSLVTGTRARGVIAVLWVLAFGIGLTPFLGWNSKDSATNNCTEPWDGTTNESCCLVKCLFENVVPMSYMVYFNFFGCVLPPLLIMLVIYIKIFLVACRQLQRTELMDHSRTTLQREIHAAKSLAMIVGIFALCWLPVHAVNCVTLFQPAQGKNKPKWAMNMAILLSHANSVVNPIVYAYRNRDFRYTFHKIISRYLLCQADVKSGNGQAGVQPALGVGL

Adenosine receptor A3 = target: T5, Adenosine receptor A3 (Homo sapiens, UniProt P0DMS8); test: Inhibition of human adenosine A3 receptor
T5 sequence (P0DMS8 whole entry): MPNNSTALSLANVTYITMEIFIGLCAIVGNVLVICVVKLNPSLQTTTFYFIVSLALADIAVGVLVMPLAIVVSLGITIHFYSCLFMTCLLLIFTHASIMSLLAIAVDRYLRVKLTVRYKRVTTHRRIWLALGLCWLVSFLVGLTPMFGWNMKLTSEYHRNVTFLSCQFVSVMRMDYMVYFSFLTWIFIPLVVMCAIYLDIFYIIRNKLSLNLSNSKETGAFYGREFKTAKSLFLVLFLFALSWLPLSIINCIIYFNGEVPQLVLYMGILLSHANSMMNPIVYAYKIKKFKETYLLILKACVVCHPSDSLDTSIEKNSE

[17] = Plasma concentration in rat at 3 mg/kg, po after 2 hrs; type: ADME, organism-based; parameters: dose 3 mg/kg, route oral
[18] = Plasma concentration in rat at 10 mg/kg, po after 2 hrs; type: ADME, organism-based; parameters: dose 10 mg/kg, route oral
[19] = Plasma concentration in rat at 30 mg/kg, po after 2 hrs; type: ADME, organism-based; parameters: dose 30 mg/kg, route oral
[20] = Drug level in rat brain at 3 mg/kg, po after 2 hrs; type: ADME, organism-based; parameters: dose 3 mg/kg, route oral; details: read-out: Drug uptake
[21] = Drug level in rat brain at 10 mg/kg, po after 2 hrs; type: ADME, organism-based; parameters: dose 10 mg/kg, route oral; details: read-out: Drug uptake
[22] = Drug level in rat brain at 30 mg/kg, po after 2 hrs; type: ADME, organism-based; parameters: dose 30 mg/kg, route oral; details: read-out: Drug uptake
[23] = Ratio of drug level in brain to plasma in rat at 3 mg/kg, po after 2 hrs; type: ADME, organism-based; parameters: dose 3 mg/kg, route oral; details: brain and plasma
[24] = Ratio of drug level in brain to plasma in rat at 10 mg/kg, po after 2 hrs; type: ADME, organism-based; parameters: dose 10 mg/kg, route oral; details: brain and plasma
[25] = Ratio of drug level in brain to plasma in rat at 30 mg/kg, po after 2 hrs; type: ADME, organism-based; parameters: dose 30 mg/kg, route oral; details: brain and plasma

T1 sequence (P29274 whole entry): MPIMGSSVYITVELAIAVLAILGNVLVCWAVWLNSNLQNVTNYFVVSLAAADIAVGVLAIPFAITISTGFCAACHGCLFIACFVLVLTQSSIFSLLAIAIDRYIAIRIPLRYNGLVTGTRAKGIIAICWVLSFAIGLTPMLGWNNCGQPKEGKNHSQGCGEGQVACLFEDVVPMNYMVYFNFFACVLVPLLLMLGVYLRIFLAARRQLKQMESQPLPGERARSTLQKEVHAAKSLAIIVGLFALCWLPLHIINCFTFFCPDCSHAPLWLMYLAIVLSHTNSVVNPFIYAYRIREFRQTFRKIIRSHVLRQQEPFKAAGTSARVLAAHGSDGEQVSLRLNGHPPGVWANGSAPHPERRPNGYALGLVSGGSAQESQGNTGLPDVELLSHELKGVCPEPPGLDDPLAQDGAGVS
Chain of Adenosine receptor A2a (Rattus norvegicus, UniProt P30543) (P30543 whole entry): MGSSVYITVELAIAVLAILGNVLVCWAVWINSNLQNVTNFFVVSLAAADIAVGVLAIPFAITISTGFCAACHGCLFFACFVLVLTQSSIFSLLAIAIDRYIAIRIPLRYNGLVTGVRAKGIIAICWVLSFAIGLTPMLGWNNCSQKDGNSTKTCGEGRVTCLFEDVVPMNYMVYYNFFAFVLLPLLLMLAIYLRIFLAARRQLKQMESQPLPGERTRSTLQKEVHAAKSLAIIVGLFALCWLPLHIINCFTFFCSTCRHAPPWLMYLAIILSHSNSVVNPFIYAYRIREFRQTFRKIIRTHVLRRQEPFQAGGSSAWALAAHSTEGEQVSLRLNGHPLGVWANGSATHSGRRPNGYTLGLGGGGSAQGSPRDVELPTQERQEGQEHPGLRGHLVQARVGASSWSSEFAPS
Chain of Cytochrome P450 2D6 (P10635 whole entry): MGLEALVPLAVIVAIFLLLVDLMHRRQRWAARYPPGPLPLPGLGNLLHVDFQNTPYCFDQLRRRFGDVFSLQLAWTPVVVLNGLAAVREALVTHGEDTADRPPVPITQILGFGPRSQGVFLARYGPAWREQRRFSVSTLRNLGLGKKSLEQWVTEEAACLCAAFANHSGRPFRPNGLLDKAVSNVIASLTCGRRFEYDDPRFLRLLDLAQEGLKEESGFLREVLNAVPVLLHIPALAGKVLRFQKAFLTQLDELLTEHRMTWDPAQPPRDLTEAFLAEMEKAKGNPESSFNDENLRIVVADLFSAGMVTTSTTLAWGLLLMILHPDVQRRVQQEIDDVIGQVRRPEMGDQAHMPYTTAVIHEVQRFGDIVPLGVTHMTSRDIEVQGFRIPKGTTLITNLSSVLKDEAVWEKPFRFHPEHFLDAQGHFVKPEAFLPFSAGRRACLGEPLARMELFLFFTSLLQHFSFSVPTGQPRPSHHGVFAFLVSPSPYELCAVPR
Chain of hERG (KCNH2) (Q12809 whole entry): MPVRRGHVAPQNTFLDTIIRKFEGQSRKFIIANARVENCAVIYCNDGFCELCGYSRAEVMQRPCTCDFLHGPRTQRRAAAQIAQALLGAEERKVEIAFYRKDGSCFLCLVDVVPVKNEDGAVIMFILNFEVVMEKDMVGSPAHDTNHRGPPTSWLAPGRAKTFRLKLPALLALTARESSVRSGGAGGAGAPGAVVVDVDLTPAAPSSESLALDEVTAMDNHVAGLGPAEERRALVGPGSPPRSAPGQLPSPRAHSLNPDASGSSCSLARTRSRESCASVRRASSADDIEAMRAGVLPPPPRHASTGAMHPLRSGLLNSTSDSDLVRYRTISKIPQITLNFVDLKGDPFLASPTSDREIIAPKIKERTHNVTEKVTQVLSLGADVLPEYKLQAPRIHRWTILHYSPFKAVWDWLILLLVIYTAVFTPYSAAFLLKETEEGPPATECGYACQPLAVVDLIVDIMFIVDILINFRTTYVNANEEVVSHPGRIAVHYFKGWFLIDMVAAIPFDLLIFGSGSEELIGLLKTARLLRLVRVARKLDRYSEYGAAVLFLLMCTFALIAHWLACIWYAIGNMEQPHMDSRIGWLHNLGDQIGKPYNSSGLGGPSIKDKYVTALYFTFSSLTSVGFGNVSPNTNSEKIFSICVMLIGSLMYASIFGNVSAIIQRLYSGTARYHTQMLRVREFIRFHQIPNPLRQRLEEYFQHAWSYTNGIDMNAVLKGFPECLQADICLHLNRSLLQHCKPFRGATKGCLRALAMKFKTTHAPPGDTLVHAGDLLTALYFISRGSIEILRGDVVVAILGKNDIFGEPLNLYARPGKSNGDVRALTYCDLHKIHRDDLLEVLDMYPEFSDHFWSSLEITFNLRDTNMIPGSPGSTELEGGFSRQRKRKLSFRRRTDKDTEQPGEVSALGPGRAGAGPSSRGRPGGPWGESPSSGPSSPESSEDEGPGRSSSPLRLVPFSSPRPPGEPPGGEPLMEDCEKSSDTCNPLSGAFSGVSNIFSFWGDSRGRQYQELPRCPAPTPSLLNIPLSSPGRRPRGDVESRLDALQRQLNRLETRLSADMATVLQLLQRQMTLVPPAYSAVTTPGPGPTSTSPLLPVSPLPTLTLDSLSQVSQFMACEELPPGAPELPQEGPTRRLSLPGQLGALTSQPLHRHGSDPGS
Chain of Cytochrome P450 2C19 (P33261 whole entry): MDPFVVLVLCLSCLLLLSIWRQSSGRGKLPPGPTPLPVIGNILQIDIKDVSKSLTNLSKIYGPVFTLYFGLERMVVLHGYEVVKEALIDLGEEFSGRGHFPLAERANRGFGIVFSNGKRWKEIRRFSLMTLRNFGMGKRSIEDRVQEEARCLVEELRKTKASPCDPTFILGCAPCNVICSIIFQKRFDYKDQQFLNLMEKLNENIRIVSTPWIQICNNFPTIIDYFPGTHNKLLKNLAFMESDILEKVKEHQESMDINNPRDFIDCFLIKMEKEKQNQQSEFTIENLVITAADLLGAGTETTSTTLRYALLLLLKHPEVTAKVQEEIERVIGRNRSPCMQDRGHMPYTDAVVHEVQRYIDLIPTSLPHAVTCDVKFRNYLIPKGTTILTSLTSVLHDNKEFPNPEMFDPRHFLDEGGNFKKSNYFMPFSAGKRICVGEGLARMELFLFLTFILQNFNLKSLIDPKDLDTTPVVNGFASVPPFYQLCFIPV
Chain of Cytochrome P450 2C9 (P11712 whole entry): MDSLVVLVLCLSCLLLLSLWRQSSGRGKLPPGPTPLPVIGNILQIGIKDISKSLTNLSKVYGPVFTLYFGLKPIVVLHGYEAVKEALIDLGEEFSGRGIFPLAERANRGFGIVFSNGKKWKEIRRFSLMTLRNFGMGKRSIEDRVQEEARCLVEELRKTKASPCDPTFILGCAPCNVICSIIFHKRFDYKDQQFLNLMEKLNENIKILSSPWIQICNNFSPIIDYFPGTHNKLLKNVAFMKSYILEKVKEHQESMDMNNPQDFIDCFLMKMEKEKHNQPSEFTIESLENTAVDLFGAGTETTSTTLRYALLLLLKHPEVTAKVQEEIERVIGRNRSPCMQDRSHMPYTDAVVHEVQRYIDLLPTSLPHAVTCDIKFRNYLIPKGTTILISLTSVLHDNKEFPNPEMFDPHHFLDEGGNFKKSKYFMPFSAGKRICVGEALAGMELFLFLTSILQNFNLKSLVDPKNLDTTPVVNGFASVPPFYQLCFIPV
Chain of Cytochrome P450 3A4 (P08684 whole entry): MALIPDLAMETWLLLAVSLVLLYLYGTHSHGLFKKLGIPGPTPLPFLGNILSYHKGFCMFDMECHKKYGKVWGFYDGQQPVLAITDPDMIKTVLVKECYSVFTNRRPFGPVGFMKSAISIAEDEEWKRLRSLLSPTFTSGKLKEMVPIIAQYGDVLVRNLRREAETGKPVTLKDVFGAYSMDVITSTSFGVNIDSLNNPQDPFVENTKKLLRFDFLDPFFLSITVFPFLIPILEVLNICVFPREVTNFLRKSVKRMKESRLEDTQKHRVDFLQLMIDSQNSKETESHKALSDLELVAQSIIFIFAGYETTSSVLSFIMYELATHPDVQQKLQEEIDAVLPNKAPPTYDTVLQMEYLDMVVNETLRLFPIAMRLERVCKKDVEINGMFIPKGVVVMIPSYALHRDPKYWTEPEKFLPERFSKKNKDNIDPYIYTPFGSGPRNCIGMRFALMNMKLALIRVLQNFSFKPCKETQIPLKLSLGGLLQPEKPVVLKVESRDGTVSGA

Tmax [1]: 54 min
Ki (Adenosine receptor A2a [2]): 4.7 nM
IC50 (Adenosine receptor A2a [3]): 85 nM
Ki (Adenosine receptor A1): 162 nM
logD [4]: 2.2
solubility [5]: 1000 µg/mL (≈ 2900 µM)
Ki (Adenosine receptor A2a [6]): 48 nM
IC50 (Cytochrome P450 3A4): > 50000 nM
IC50 (Cytochrome P450 2D6): > 50000 nM
IC50 (Cytochrome P450 2C9): > 50000 nM
IC50 (Cytochrome P450 2C19): > 50000 nM
IC50 (Cytochrome P450 1A2): 11000 nM
Papp [7]: 70 ×10⁻⁶ cm/s
Ratio (Caco-2): 0.7
concentration at 1 h [8]: 863 ng/g
concentration at 4 h [9]: 116 ng/g
concentration at 1 h [10]: 1600 ng/mL
concentration at 4 h [11]: 333 ng/mL
Kp at 1 h [12]: 0.51
Kp at 4 h [13]: 0.33
Activity (Rattus norvegicus [16]): Dose-dependent effect
Ki (Adenosine receptor A2b): 145 nM
Ki (Adenosine receptor A3): 19 nM
concentration at 2 h [17]: 98 ng/mL
concentration at 2 h [18]: 1060 ng/mL
concentration at 2 h [19]: 4640 ng/mL
concentration at 2 h [20]: 34 ng/g
concentration at 2 h [21]: 488 ng/g
concentration at 2 h [22]: 2020 ng/g
Kp at 2 h [23]: 0.37
Kp at 2 h [24]: 0.46
Kp at 2 h [25]: 0.45
Structure (SMILES): COC[C@H]1CCCN1c1cc(NC(C)=O)nc(-n2nc(C)cc2C)n1
inhibition at 10 µM (hERG (KCNH2)): 19%
Activity (Rattus norvegicus [14]): Active
Activity (Rattus norvegicus [15]): Active

Source: ChEMBL document CHEMBL1143380, “N-[6-amino-2-(heteroaryl)pyrimidin-4-yl]acetamides as A2A receptor antagonists with improved drug like properties and in vivo efficacy” (J Med Chem, 2009)
